Results as given in patent US7070942B2, “Method of inducing or enhancing chondrogenesis with extracellular matrix containing GDF-5” (DePuy Spine, Inc., priority 1998, dated 2006).

What was measured:
[1] = tested on: GDF-5/type I collagen-induced chondrogenesis; test: Inhibitors of intracellular signaling mediators on GDF-5/type I collagen-induced chondrogenesis; format: cell-based; details: GDF-5 in the context of type I collagen
From the text: The molecular signaling mechanism by which GDF-5 induces chondrogenesis in the context of type I collagen was also examined using well-characterized inhibitors of intracellular signaling mediators. […] The known inhibitory effect of rapamycin on activation of p70S6 kinase indicate that GDF-5/type I collagen-induced chondrogenesis is mediated through p70S6 kinase activation.

MC3T3-E1 cells = details: well differentiated osteoblastic MC3T3-E1 cells; cited from earlier work
rat limb bud cells = details: cited from earlier work
FRC [2] = test: FRC seeded in porous type I collagen matrix, RT-PCR and histology with alcian or Toludine blue staining; format: cell-based, rat; details: GDF-5 100 ng/ml, 3 weeks
Protocol: A porous matrix fabricated from type I collagen was seeded by, 1×10^5 cell per implant (2×3×3 mm). Cells embedded in matrices were then cultured for 3 weeks in culture supplemented with or without GDF-5 (100 ng/ml). Total RNA isolated from each implant were then subjected to RT-PCR. […] In parallel the implant material was subject to histological evaluation followed by alcian or Toludine blue staining. […] Under these conditions FRC cells were not able to proliferate and differentiate in the ECM in the absence of GDF-5 as measured by histological evaluation total DNA, RNA or protein content.

[3] = tested on: heterodimer of receptor for BMPs; details: cited from earlier work
FRC cells [4] = test: FRC in 3D collagen-based matrices of different porosity, with or without hyaluronic acid coating, semi-quantitative PCR; format: cell-based, rat; details: only in matrices coated with hyaluronic acid with the highest porosity (about 300 micron); GDF-5 100 ng/ml, 3 weeks
Protocol: Each matrix composite was either coated with or without hyaluronic acid, a major component of cartilage. The implants were then seeded with 1×10^5 cells per implant and cultured for 3 weeks in the presence of GDF-5 (100 ng/ml). Total RNA extracted from each implant were then subjected to semi-quantitative PCR analysis. […] Together these findings indicate that GDP-5 chondrogenesis activity is fully and potently synergized by a matrix which contain 1) high pore size (about 100-300 micron); and 2) is composed of type I collagen which is coated with hyaluronic acid.

[5] = tested on: rat osteoprogenitor cells ROB-C26; details: cited from earlier work
Sprague-Dawley rats = test: Rat soft tissue implants, intramuscular, alkaline phosphatase activity and histology at 14 days; format: in vivo
From the text: In vivo activity of rhGDF-5 on collagen-based matrices.
In Vivo Assays, Rat Soft Tissue Implants: Matrix/growth factor combinations were implanted either subcutaneously in the thoracic region or intramuscularly in posterior tibial muscle pouches created by blunt dissection in 8 week old male Sprague-Dawley rats. At 14 days post-surgery, implants were harvested, weighed and processed for routine histology (fixed in 10% formalin, paraffin-embedded, sectioned to 6 μm, and hematoxylin and eosin stained). Alternatively, implants were extracted and assayed for alkaline phosphatase activity.

FRC cells [6] = test: Semiquantitative PCR of aggrecan, type II collagen and type I collagen mRNA in FRC culture treated with GDF-5 in the presence of type I collagen; format: cell-based, rat; details: FRC with GDF-5 in the presence of type I collagen
From the text: To examine correlation of changes in cellular morphology with the process of chondrogenesis, total cellular RNA and protein were isolated from FRC culture treated with GDF-5 in the presence of type I collagen. Total cellular RNA isolated from FRC cells was subjected to a semiquantitative PCR analysis using specific primers designed to amplify aggrecan, type II collagen or type I collagen. […] Under these conditions, type I collagen mRNA expression decreased by about 20%. The expression of aggrecan and type II collagen was confirmed using slot blot analysis.

[7] = tested on: fetal rat calvarial cells (FRC's); test: Fetal rat calvarial cells plated on purified extracellular matrix proteins with GDF-5; chondrogenic nodule formation, alcian blue stain; format: cell-based; details: GDF-5 100 ng/ml
Protocol: To show in vitro application, fetal rat calvarial cells (FRC's) were plated on various purified extracellular matrix proteins in the presence of recombinant human GDF-5 (100 ng/ml) for 3 weeks and scored for differentiation at the level of morphology, overall proteoglycan synthesis and deposition, and aggrecan and type II collagen expression. […] Chondrogenic nodules stained heavily with alcian blue and were positive for type II collagen and aggrecan-expression, as judged by immunohistochemical and transcriptional analyses. Cells in monolayer that surround the nodules were negative for the chondrogenic markers.
Plastic plates were first coated with different ECM proteins including type I and II collagen, type IV collagen, or fibronectin. […] Plastic culture 12 well (Costar, Cambridge, Mass.) were coated with 0.01% (w/v) of the indicated extracellular matrix proteins for 2 hours at 37° C. After removal of nonadsorbant protein, fetal rat calvarial cells were plated at a density of 2×10^5 cells/well in DMEM containing 10% FBS. Culture plates were then maintained for 21 days in culture media supplemented with or without GDF-5 (100 ng/ml). Plates were then stained overnight with alcian blue stain (0.5% w/v in 3% acetic acid), washed and photographed. For quantitation of alcian blue, cells were solubilized in 8M urea, and the amount of stain was quantitated using spectrophotometer (Molecular Devices, Sunnyvale, Calif.).

FRC cells [8] = test: Immunoblot of total cell lysates for type II collagen or aggrecan; format: cell-based, rat
Protocol: Total cell lysates (100 ug) were electrophoretically separated on a 8% or 5% SDSPAGE, transferred to immobilon-P and immunoblotted using antibody specific to type II collagen or aggrecan.

FRC [9] = test: Chondrogenesis by monochromatic staining of FRC cultured in the presence of type I collagen and various growth factors; format: cell-based, rat; details: FRC in the presence of type I collagen
Protocol: The growth and differentiation factor-induced chondrogenesis is highly specific to GDF-5. It was shown that ECM-dependent chondrogenesis by GDF-5 is highly specific, by evaluating the ability of several mitogens and prototype differentiation factors under the following conditions. Chondrogenesis was assessed by monochromatic staining of FRC cultured in the presence of type I collagen and various growth factors.

For `CNc1ccc2oc(C[C@H]3O[C@@]4(CC[C@H]3C)O[C@H]([C@H](C)C(=O)c3ccc[nH]3)[C@H](C)C[C@H]4C)nc2c1C(=O)O` [A23187], the “inhibition of ligand-dependent chondrogenesis” value (shortened to “inhibition”) [1] was “completely inhibited”.
With `O=C(O)CN(CCOCCOCCN(CC(=O)O)CC(=O)O)CC(=O)O` [EGTA] the “inhibition” value [1] was “not”.
With `[Na+].[Na+].[Na+].[O]=[V]([O-])([O-])[O-]` [Na3VO4] the “inhibition” value [1] was “not”.
With `CCCC(=O)Nc1ncnc2c1ncn2[C@@H]1O[C@@H]2COP(=O)(O)O[C@H]2[C@H]1OC(=O)CCC` [dibutyryl-cAMP] the “inhibition” value [1] was “not”.
For “GDF-5: growth and differentiation factor-5, a member of the bone morphogenetic protein (BMP) family that is involved in joint development”, the alkaline phosphatase activity (MC3T3-E1 cells) is given as “fails to stimulate”, the “mesenchymal aggregation and chondrogenesis” value (rat limb bud cells) is given as “stimulates” and the “expression of aggrecan and type II collagen (RT-PCR)” value (FRC [2]; 1x10^5 cells per implant) is given as “induced expression”. The “cellular morphology of FRC (alcian blue staining, cell shape)” value (FRC [2]; histology) was “marked changes in cellular morphology”, the “binding to heterodimer of receptor for BMPs” value [3] was “binds” and the “expression level of type II collagen and aggrecan” value (FRC cells [4]) was “significant increase”. For the same compound, the alkaline phosphatase activity [5] was “stimulates”, the “alkaline phosphatase activity and chondrogenesis” value (Sprague-Dawley rats; CN/HA matrices loaded with 1, 5 and 50 μg, intramuscular in rats) was “dose-depended increase” and the “chondrogenesis and full terminal differentiation” value (Sprague-Dawley rats; mineralized collagen combined with rhGDF-5, intramuscular in rats) was “very little evidence”. The “decrease of type I collagen mRNA expression” value (FRC cells [6]) was “about 20%”, the “increase of aggrecan mRNA expression” value (FRC cells [6]) was about 3 and the “increase of type II collagen mRNA expression” value (FRC cells [6]) was “around 2”. The “formation of chondrogenic cell aggregate binding alcian blue stain” value ([7]; ECM-coated plastic plates (0.01% w/v), 21 days) was “stimulated the formation of chondrogenic cell aggregate”, the “formation of characteristic nodules” value ([7]; FRC cultured in the presence of vehicle alone, type IV collagen or fibronectin, 21 days) was “fails to stimulate the formation of characteristic nodules” and the chondrogenesis ([7]; FRC's plated on fibronectin, type IV collagen or tissue culture plastic, 3 weeks) was “failed to stimulate chondrogenesis”. The chondrogenic nodule formation ([7]; FRC's plated on type I or type II collagen, 3 weeks) was “stimulated chondrogenic nodule formation”, the “expression of type II collagen or aggrecan” value (FRC cells [8]; FRC cells cultured in the absence of type I collagen) was “fails to stimulate expression” and the “steady state level of type II collagen and aggrecan” value (FRC cells [8]; FRC cultured with type I collagen) was “significant increase”.
For IGF-I: growth factor, the stimulation of chondrogenesis (FRC [9]) was “failed to stimulate chondrogenesis”.
In the case of IGF-II: growth factor, the stimulation of chondrogenesis (FRC [9]) was “failed to stimulate chondrogenesis”.
In the case of TGFb, the stimulation of chondrogenesis (FRC [9]) was “completely failed to stimulate chondrogenesis”.
In the case of bFGF: growth factor, the stimulation of chondrogenesis (FRC [9]) was “failed to stimulate chondrogenesis”.
